Results reported in patent US10695409B2, “Universal cancer peptides derived from telomerase” (INVECTYS, priority 2012, dated 2020).

Key:
CD4 T cells [1] = test: Ex vivo IFN-γ ELISPOT of CD8 depleted spleen lymphocytes from TERT DNA-immunized mice; assay type: in vivo, A2/DR1 mice; details: mice immunized with DNA encoding TERT
Method: (5A-5B), A2/DR1 mice (n=8) were immunized twice with a DNA encoding TERT.
(5B), CD8 depleted spleen lymphocytes from DNA-immunized mice were assayed in ex vivo IFN-γ ELISPOT. Columns mean of triplicate from 4 mice; bars, SD.
To study the processing of UCP, A2/DR1 mice were immunized with a pTrip-TERT DNA (100 μg) at days 0 and 14 as previously reported (Adotevi et al, 2010). In some experiment CD4 T cells were depleted with anti-CD4 mAb treatment (clone GK1.5) prior DNA immunization. For UCP immunization, mice were injected with 100 μg of each UCP emulsified in incomplete Freund adjuvant (IFA, Sigma-Aldrich, France). In some experiments, 50 μg of pY988 peptide was co-injected with 100 μg of each UCP in IFA. All peptide vaccinations were done subcutaneously (s.c) at the right abdominal flank. Eight to ten week-old mice were bred and maintained in our animal facilities. All experiments were done according to the good laboratory practices defined by animal experimentation rules in France.
Ex vivo pentamer staining was performed as previously described (Adotevi et al, 2010; Adotevi et al, 2006). Cells were stained with PE-conjugated pY988 and pY572 HLA-A2.1 pentamer (ProImmune, UK). After cell staining, samples were analyzed by flow cytometry on a FACS Canto II (BD Biosciences, France) and using Diva software. […]
The inventors and others have previously reported that the use of humanized HLA transgenic mice models to screen for human tumor antigens represents a potent alternative to optimize “reverse immunology” approaches for epitope identification (Adotevi et al, 2006; Osen et al, 2010). […] To assess whether UCPs can be endogenously processed from the TERT protein, the inventors performed immunizations with a plasmid DNA encoding the full length TERT sequence and the UCP-specific CD4 splenocytes were monitored by a five-day 3H-thymidine incorporation assay. […] To this end, freshly isolated CD4 T cells from UCP-vaccinated mice were cultured in the presence of syngenic iDC pulsed or not with UCP and cytokines production was measured.

CD4 T cells [2] = test: Avidity of UCP-specific CD4 T cells from UCP-immunized mice, IFN-γ ELISPOT; assay type: in vivo, A2/DR1 mice; details: vaccinated once, ~1 μg peptide
Method: (5C-5D), Mice (3-4/group) were immunized once with each UCP in IFA.
(5D), Isolated CD4 T cells were cultured ex vivo with increasing concentrations of peptide as indicated. IFN-γ production was measured by ELISPOT. Curves, mean responses from 3 mice, bars, SD.
(5E), Mice were vaccinated once with low dose of UCP as indicated. UCP-specific T cell responses were evaluated in spleen by ex vivo IFN-γ ELISPOT.
(§1) To study the processing of UCP, A2/DR1 mice were immunized with a pTrip-TERT DNA (100 μg) at days 0 and 14 as previously reported (Adotevi et al, 2010). In some experiment CD4 T cells were depleted with anti-CD4 mAb treatment (clone GK1.5) prior DNA immunization. For UCP immunization, mice were injected with 100 μg of each UCP emulsified in incomplete Freund adjuvant (IFA, Sigma-Aldrich, France). In some experiments, 50 μg of pY988 peptide was co-injected with 100 μg of each UCP in IFA. […]
(§2) Ex vivo pentamer staining was performed as previously described (Adotevi et al, 2010; Adotevi et al, 2006). […] After cell staining, samples were analyzed by flow cytometry on a FACS Canto II (BD Biosciences, France) and using Diva software. […]
Next, to assess the avidity of UCP-specific CD4 T cell, freshly purified CD4 T cells from UCP-immunized mice were cultured in the presence of increasing concentrations of peptide and the number of specific IFN-γ producing CD4 T cells was measured by ELISPOT. […]

[3] = tested on: blood lymphocytes from NSCLC patients and healthy volunteers; test: Spontaneous UCP-specific T cell responses, IFN-γ ELISPOT after one week stimulation; assay type: cell-based, human; details: frequency of T cell responses
[4] = tested on: UCP-specific CD4 T cell clones; test: TNF secretion of UCP-specific CD4 T cell clones from cancer patient, flow cytometry; assay type: cell-based, human; details: CD4 T cell clones with cognate peptide, 5 h, Brefeldin A; read-out: peptide concentration at half-maximal TNF secretion
Method: T cell clones were obtained by limiting dilution of cancer patients T cell lines stimulated one time with the pool of UCPs. (2A and 2C) Percentage of TNF-producing T cells and of T cell clones isolated from patients GE001 in response to 10 μM of the relevant UCP; 10^5 T cells were incubated for 5 h in the presence of Brefeldin A, stained with CD4 antibody, fixed, and stained with anti-TNF antibody in a permeabilization buffer; 10^4 T cells were then analyzed in flow cytometry. (2B and 2D) Reactivity of the CD4 T cell clones in response to relevant UCP. CD4 T cell clones were culture with a range of the indicated peptide concentration. TNF secretion was assessed 5 h in the presence of Brefeldin A, by flow cytometry. (2E) Detection of cytokines produced by GE001.36 T cell clone in response to 10 μM of UCP4 using human ten-plex cytokines assay. […]
For intracytoplasmic cytokine staining, after a 5-h stimulation period with or without 10 μM peptide, T cells were labeled with anti-CD4 (BD Bioscience, USA) and anti-TNF-α (ebioscience, USA) using Cytofix/Cytoperm KIT (BD Bioscience). […] Samples were acquired on a FACS Canto II (BD Biosciences) and analyzed with the DIVA software. […]

HLA-DR molecules = test: HLA-DR binding assay, competitive ELISA, summary over the alleles tested; design: species or system human; details: RA intermediate 100-500, low <100
Method: (§3) Synthetic peptides (>80% purity) were purchased from Activotec (Cambridge, United Kingdom). The binding capacity to HLA-DR molecules was assessed by competitive ELISA as previously reported (Wang et al).
(§4) To predict the existence of CD4 epitopes within the amino acid sequence of TERT capable of binding to multiple HLA-DR molecules, the inventors have combined results from three algorithms Syfpeithi, NetMHCpan-2.1 and NetMHC2.2. They have selected four 15-mers peptide sequences referred as UCP1 to UCP4 that scored high in the probability scale for their binding capacity to the commonly found human HLA-DR alleles (Table 1). […] Data are expressed as relative activity RA (ratio of the IC50 of UCPs to the IC50 of the reference peptide) and are the means of three experiments. Good binders have a […] and weak binder are […].
Thus, according to phenotypic frequencies of the 10 prevalent HLA-DR antigens, these peptides could cover more than 90% of population (Wang et al).

[5] = tested on: immature bone marrow-derived DCs; test: In vitro DC-CD4 T cell co-culture; assay type: cell-based, A2/DR1 mice; details: CD4 T cells from UCP2/IFA versus IFA injected mice
Method: 8B, Schema of the in vitro DC-CD4 T cell co-culture.
8C, IFN-γ and GM-CSF production measured by ELISA in the supernatant.
8D, Expression of CD86 and HLA-DR on CD11c+ DC.
8E, Interleukin 12 production measured in supernatant by ELISA.
Spleen or lymph nodes CD11c+ DCs from peptide-immunized mice were directly analyzed for co-stimulatory receptor expression. In some experiments, immature bone marrow-derived DCs (iDC) from A2/DR1 mice were cultured 15-h with CD4 T cells from mice immunized with UCP or IFA alone and then stained for cell surface expression of co-stimulatory receptors and cytokines production.
The induction of dendritic cell activation represents one major helper mechanism used by CD4+ Th1 cells to sustain antigen presentation and provide costimulatory signals to the CTLs. This is referred as the “ménage à trois” model (Ridge et al, 1998). To test this mechanism, the inventors have analyzed the expression of co-stimulating receptors on DCs from mice immunized with the mix of pY988+/−UCP2. […] In a second set of experiments, isolated CD4 T cells from UCP2/IFA or IFA injected mice were co-cultured with syngenic iDCs as shown in FIG. 8B. As expected, UCP2-specific CD4 T cells produced significant amounts of Th1 cytokines such as IFN-γ and GM-CSF (FIG. 8C).

HLA-DR DR11 = test: HLA-DR binding assay, competitive ELISA; design: species or system human; details: means of three experiments
HLA-DR DR3 = test: HLA-DR binding assay, competitive ELISA; design: species or system human; details: means of three experiments
Method: as §3, §4

[6] = tested on: pY988-specific CD8 T cells; test: Co-immunization pY988 plus UCP: pY988-specific CTL response by pentamer staining and IFN-γ ELISPOT; assay type: in vivo, A2/DR1 mice; details: pY988 plus UCP in IFA versus pY988/IFA alone, day 10, spleen
Text: Mice (3/group) were immunized either with pY988 plus each UCP in IFA or with pY988/IFA alone and the immune responses were monitored ten days later in the spleen. 6A, freshly isolated CD8 T cells were stained with TERT pY988/A2+ pentamer. Representative flow cytometry dot plots (upper panel) and mean percentages of pY988/A2+ CD8 T cells (lower panel) are shown.
6B, Ex vivo detection of anti-pY988 CD8 T cells by IFN-γ ELISPOT.
as §1, §2
CD4 T cell helper functions are thought to be important for the generation of potent and sustained CTL responses (Shedlock et al, 2003). […] The pY988-specific CTL response was measured ex vivo by pentamer staining and ELISPOT assays. […]

HLA-DR DR13 = test: HLA-DR binding assay, competitive ELISA; design: species or system human; details: means of three experiments
Method: as §3, §4

HLA-DR DRB4 = HLA-DR DRB4 (Homo sapiens, UniProt P01903+P13762); test: HLA-DR binding assay, competitive ELISA; details: means of three experiments
Method: as §3, §4

| EC50 [4] [µM] | Relative affinity RA (ratio of the IC50 of UCPs to the IC50 of the reference peptide) (HLA-DR DR11) | Relative affinity RA (ratio of the IC50 of UCPs to the IC50 of the reference peptide) (HLA-DR DR3) | Relative affinity RA (ratio of the IC50 of UCPs to the IC50 of the reference peptide) (HLA-DR DR13) | Relative affinity RA (ratio of the IC50 of UCPs to the IC50 of the reference peptide) (HLA-DR DRB4) | Sequence | specific CD4 T cell responses detected (CD4 T cells [1]) | IFN-γ+ CD4 T cells after low dose vaccination (CD4 T cells [2]) | CD4 T cell responses to individual UCPs [3] | capacity to bind HLA-DR molecules (HLA-DR molecules) | DC activation and interleukin-12 production in presence of UCP2-specific CD4 T cells [5] | frequency of pY988/A2 pentamer+ CD8 T cells [6] |
| --- | --- | --- | --- | --- | --- | --- | --- | --- | --- | --- | --- |
|  |  |  |  |  | GTAFVQMPAHGLFPW [UCP3] | in all immunized mice | stimulated potent IFN-γ+ CD4 T cells |  |  |  |  |
| ~4 |  |  |  |  | KSVWSKLQSIGIRQH [UCP2, universal cancer peptide derived from TERT, 15-mer] | in all immunized mice | stimulated potent IFN-γ+ CD4 T cells | more immunogenic | able to bind every HLA-DR molecules tested | induced potent DCs activation |  |
|  | 25 | 0.4 |  |  | PAAFRALVAQCLVCV (listed as Homo sapiens) [UCP1, universal cancer peptide derived from TERT, 15-mer] |  |  |  | able to bind every HLA-DR molecules tested |  | little impact |
| < 0.1 | 0,3 | >500 | >500 | >500 | SLCYSILKAKNAGMS [UCP4, universal cancer peptide derived from TERT, 15-mer] | in all immunized mice |  | more immunogenic |  |  |  |
